Data as given in patent US10513519B2, “Solid forms of (1S,4S)-4-(2-(((3S,4R)-3-fluorotetrahydro-2H-pyran-4-yl)amino)-8-((2,4,6-trichlorophenyl)amino)-9H-purin-9-yl)-1-methylcyclohexane-1-carboxamide and methods of their use” (Signal Pharmaceuticals, LLC, priority 2016, dated 2019).

Columns and labels:
[1] = system: DUSP4, DUSP6, SPRY2, c-Myc, cyclin D1, Axin2, CTGF, AREG mRNA in Colo 205 (BRAF V600E); test: Quantitative PCR (Cell-To-CT kit) in Colo 205; assay type: cell-based
Protocol: The ability of Compound 1 to inhibit MAPK signaling was assessed by determining the DUSP4 and DUSP6 protein expression. Colon cancer cell line Colo 205 (BRAF V600E) cultures were treated with DMSO or increasing concentrations of Compound 1 for 2, 8 or 24 h. Proteins were extracted from treated cells and analyzed by Western blot using antibodies against DUSP4, DUSP6, cyclin D1, c-Myc, YAP or β-actin. RNAs were extracted using Cell-To-CT kit and quantitative PCR was performed with probes specific for DUSP4, DUSP6, SPRY2, c-Myc and cyclin D1. Specific probes for β-actin were used for normalization.
Cellular activity against beta-catenin and YAP target genes by Compound 1 was evaluated. Colon cancer cell line Colo 205 (BRAF V600E) cultures were treated with DMSO or increasing concentrations of Compound 1 for 2, 8 or 24 h. RNAs were extracted using Cell-To-CT kit and quantitative PCR was performed with probes specific for Axin2, CTGF, and AREG. Specific probes for β-actin were used for normalization.
Compound 1 modulation of MAPK, WNT/β-catenin, and Hippo/YAP pathway genes was evaluated by real-time (RT)-qPCR. […], SW48, and Colo-205 cells were plated in 96-well plates at a density of 20,000 cells per well and were allowed to attach overnight. Compound 1 was added to cells at half log concentrations from 1 nM to 10 μM for durations of 2, 8, and 24 hours. Cells were harvested using the TaqMan Gene Expression Cells-to-CT Kit according to the product manual. Next, RT-PCR was performed and the resulting cDNA was used in qPCR reactions on the ViiA7 Real-Time PCR System (Thermo Fisher Scientific). TaqMan probes were used to monitor changes in DUSP4, DUSP6, SPRY2, MYC, CCND1, AXIN2, CTGF, Cyr61, AREG, and ACTB genes. All genes were normalized to ACTB expression and reported as percentage of DMSO-only control.

[2] = system: Axin2 expression in human bronchial epithelial cells; test: Axin2 gene expression in human bronchial epithelial cells; assay type: cell-based; conditions: 0.1, 1, 10 μM; Wnt3a and/or RSPO3 stimulation; 24 hours
Protocol: Human bronchial epithelial cells were cultured in T-150 flasks in BEpiCM growth medium and allowed to reach 80% confluency. Cells were plated in 12-well plastic culture plates at 150,000 cells per well in BEpiCM medium for 24 hours. After a 24-hour incubation, cells were treated with dimethyl sulfoxide (DMSO) as a control, Compound 1 at 0.1, 1, 10 μM, for 30 minutes. Cells were then stimulated with 100 ng/ml recombinant Wnt3a (formulated in phosphate buffered saline [PBS]), 350 pM RSPO3 (formulated in PBS) or a combination of Wnt3 and RSPO3 for 24 hours. Ribonucleic acid (RNA) was isolated using a Qiagen Rneasy Mini Kit according to manufacturer's instruction. Axin2 and gene expression was determined using reverse transcription polymerase chain reaction (RT-PCR) Taq-Man assays. Quantitative PCR (qPCR) was performed using SuperScript® III One-Step RT-PCR System and ran on a Viia 7 Real-Time PCR System. Data was normalized to glyceraldehyde 3-phosphate dehydrogenase. […] Gene expression was measured at 24 hours. […] (FIG. 209).

cancer cell lines = test: Multiplexed cytotoxicity assay: apoptosis (activated caspase-3 induction); assay type: cell-based; conditions: KLE, Female GU, Uterus; 72 h
Protocol: Cells are grown in RPMI1640, 10% FBS, 2 mM L-alanyl-L-Glutamine, 1 mM Na pyruvate or a special medium in a humidified atmosphere of 5% CO2 at 37° C. Cells are seeded into 384-well plates and incubated in a humidified atmosphere of 5% CO2 at 37° C. Compounds are added 24 h post cell seeding. At the same time, a time zero untreated cell plate is generated. After a 72 hour incubation period, cells are fixed and stained with fluorescently labeled antibodies and nuclear dye to allow visualization of nuclei, apoptotic cells and mitotic cells. Apoptotic cells are detected using an anti-active caspase-3 antibody. Mitotic cells are detected using an anti phospho-histone-3 antibody. […] Automated fluorescence microscopy was carried out using a Molecular Devices ImageXpress Micro XL high-content imager, and images are collected with a 4× objective. […]
In another experiment, cells were grown in RPMI1640, 10% FBS, 2 mM L-alanyl-L-Glutamine, 1 mM Na pyruvate or a special medium in a humidified atmosphere of 5% CO2 at 37° C. […] Apoptotic cells were detected using an anti-active caspase-3 antibody. Mitotic cells were detected using an anti phospho-histone-3 antibody. […] Automated fluorescence microscopy was carried out using a Molecular Devices ImageXpress Micro XL high-content imager, and images were collected with a 4× objective. […]

pKa = assay type: physicochemical
[3] = system: IL-2 and IFNγ production by PBMC-derived T cells; test: Co-culture of compound-treated KARPAS-299 cells with SEB-stimulated PBMC: IL-2 and IFNγ; assay type: cell-based, human; conditions: SEB 20 ng/ml, treated KARPAS-299 cells co-cultured with PBMC
Protocol: To determine if Compound 1 down-regulation of PD-L1 enhances T cell activation, compound-treated KARPAS-299 cancer cells were co-cultured with PBMC-derived T cells stimulated with low concentrations of super antigen (SEB). KARPAS-299 cells were treated with DMSO (D) or Compound 1 at indicated concentrations for 48 h. PBMC from healthy donors were treated with or without 20 ng/ml SEB for 48 h. After wash with PBS, the PBMCs were incubated with the cancer cells for 24 h and the supernatants were collected to measure IL-2 and IFNγ using Mesoscale assays.

Question: Which “Axin2 RNA” value ([1]; Colo 205) does the source give for C[C@]1(C(N)=O)CC[C@@H](n2c(Nc3c(Cl)cc(Cl)cc3Cl)nc3cnc(N[C@@H]4CCOC[C@H]4F)nc32)CC1 [Compound 1, cis-4-[2-{[(3S,4R)-3-fluorooxan-4-yl]amino}-8-(2,4,6-trichloroanilino)-9H-purin-9-yl]-1-methylcyclohexane-1-carboxamide] here?
Answer: Its value is “increased Axin2 RNA”.

Question: And the “expression of Hippo/YAP target genes (CTGF, AREG)” value ([1]; Colo 205, 2, 8 and 24 hr)?
Answer: The value was “significantly reduced”.

Question: And the SPRY2 transcription ([1]; Colo 205, 2, 8 or 24 h)?
Answer: The SPRY2 transcription was “reduction of SPRY2 transcription in a concentration-dependent manner”.

Question: And the Axin2 expression [2]?
Answer: Its Axin2 expression is “inhibits Axin2 expression”.

Question: And the CalX2 (cancer cell lines)?
Answer: Its CalX2 is 10 µM.

Question: And the pKa (pKa)?
Answer: The pKa was 5.14.

Question: What about the “IL-2 and IFNγ production” value [3] of the same compound?
Answer: The value was “increased levels of both IL-2 and IFNγ production”.
